Reference: paper PMC4930906 (The Korean Journal of Physiology & Pharmacology : Official …, 2016)

Experiments:
TRESK = biological target: T1, TRESK (Mus musculus, UniProt Q6VV64); assay: whole-cell patch clamp, HEK293, voltage ramp, current at +[…] mV; type: cell-based
T1 sequence (Q6VV64 1-394): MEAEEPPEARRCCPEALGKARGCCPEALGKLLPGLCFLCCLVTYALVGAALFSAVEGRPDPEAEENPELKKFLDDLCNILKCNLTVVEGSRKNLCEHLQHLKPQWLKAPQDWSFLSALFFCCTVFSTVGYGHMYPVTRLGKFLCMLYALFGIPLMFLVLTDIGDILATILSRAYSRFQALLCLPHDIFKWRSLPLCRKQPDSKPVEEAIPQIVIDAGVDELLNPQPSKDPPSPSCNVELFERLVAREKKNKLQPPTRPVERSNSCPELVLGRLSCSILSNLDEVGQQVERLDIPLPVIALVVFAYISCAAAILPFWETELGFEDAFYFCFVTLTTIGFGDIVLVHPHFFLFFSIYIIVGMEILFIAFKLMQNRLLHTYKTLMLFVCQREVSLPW

TREK-2 = biological target: T2, TREK-2 (Rattus norvegicus, UniProt Q9JIS4); assay: as above; type: cell-based
T2 sequence (Q9JIS4 1-538): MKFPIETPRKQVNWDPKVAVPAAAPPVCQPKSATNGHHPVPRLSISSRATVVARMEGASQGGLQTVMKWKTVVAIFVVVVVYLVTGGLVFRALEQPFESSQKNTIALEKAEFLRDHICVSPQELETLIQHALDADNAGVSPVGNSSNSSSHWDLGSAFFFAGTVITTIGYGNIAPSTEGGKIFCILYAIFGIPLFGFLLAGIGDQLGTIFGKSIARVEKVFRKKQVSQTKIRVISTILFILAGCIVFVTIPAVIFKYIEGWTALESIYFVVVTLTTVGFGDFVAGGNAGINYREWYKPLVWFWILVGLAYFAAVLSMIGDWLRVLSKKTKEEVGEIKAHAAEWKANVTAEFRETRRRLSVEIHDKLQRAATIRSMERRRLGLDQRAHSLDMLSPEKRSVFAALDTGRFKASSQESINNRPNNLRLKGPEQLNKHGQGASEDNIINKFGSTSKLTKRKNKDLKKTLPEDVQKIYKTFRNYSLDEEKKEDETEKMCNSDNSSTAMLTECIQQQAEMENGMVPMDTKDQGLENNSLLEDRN

SMILES | IC50 (TRESK) [µM] | IC50 (TREK-2) [µM]
CC(=O)Nc1ccc(O)cc1 [acetaminophen] | 220 ± 26 | –
CC(NC(C)(C)C)C(=O)c1cccc(Cl)c1 (stereo not shown) [bupropion] | 160 ± 17 | –
CN(C)CCC=C1c2ccccc2CCc2ccccc21 [amitriptyline] | 26 ± 5 | 16 ± 4
CC(C)Cc1ccc(C(C)C(=O)O)cc1 (stereo not shown) [ibuprofen] | 889 ± 10 | –
CN(C)CCC[C@@]1(c2ccc(F)cc2)OCc2cc(C#N)ccc21 [escitalopram] | 49 ± 7 | 102 ± 9
COc1ccc2cc(CCC(C)=O)ccc2c1 [nabumetone] | 557 ± 35 | –
CN(C)CCCC1(c2ccc(F)cc2)OCc2cc(C#N)ccc21 (stereo not shown) [citalopram] | 168 ± 11 | 110 ± 9
